Experimental data: patent US10940139B2, “Compounds that interact with the Ras superfamily for the treatment of cancers, inflammatory diseases, rasopathies, and fibrotic disease” (Shy Therapeutics LLC, priority 2017, dated 2021)
Each block holds one compound with its values, some of them ahead of it.

Tested on: MAPK phosphorylation in PANC-1 pancreatic cancer cell line
Test: MAPK cell-based phosphorylation assay (cell-direct ELISA, EGF stimulation)
Conditions: Homo sapiens; for inhibition at 10 µM: * = tested at 10 μM
Procedure, shortened: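 Cell-direct ELISA measured phospho-MAPK, with fluorescence read at 595 nm from AmpliFlu Red. Before fixation, PANC-1 cells starved overnight received 6 hours of compound (30 μM single dose or serial dilutions, 0.3% DMSO, 37° C), followed by 1.5 ng/ml EGF for 15 min.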

SMILES: COc1ccc(-c2csc3c(O)nc(-c4ccccn4)nc23)c(C)c1 [drawing 1220]
- inhibition at 10 µM: 76 to 100%

SMILES: COc1cc(C)c(-c2csc3c(O)nc(-c4ccccn4)nc23)cc1C [drawing 1208]
- inhibition at 10 µM: 1 to 25%

SMILES: COCC(C)Nc1nc(-c2ccccn2)nc2sc(-c3ccncc3)c(-c3ccccc3)c12 (stereo not shown) [drawing 1301]
- inhibition at 10 µM: 0%

SMILES: CC(C)CNC(=O)CN1CCN(c2nc(-c3ccccn3)nc3scc(-c4ccccc4)c23)CC1 [drawing 1099]
- inhibition at 30 µM: 1 to 25%

SMILES: Oc1nc(-c2ccccn2)nc2sc3c(c12)CCNC3 [drawing 1194]
- inhibition at 10 µM: 25 to 50%

- IC50: 2 to 10 µM
SMILES: CCc1cc(NNC(=O)c2ccc(C#N)cc2)nc(-c2ccccn2)n1 [drawing 1041]
- inhibition at 30 µM: 76 to 100%

SMILES: O=C(Nc1nnc(-c2ccccn2)[nH]1)C1CCN(C(=O)c2cccs2)CC1 [drawing 1027]
- inhibition at 30 µM: 1 to 25%

SMILES: COc1cnc(CN)[nH]c1=O [drawing 1163]
- inhibition at 30 µM: 1 to 25%

SMILES: Nc1nc(O)c2sc(-c3cccc(C(=O)NC4CCNC4=O)c3)cc2n1 (stereo not shown) [drawing 1302]
- inhibition at 10 µM: 0%

SMILES: COc1ncc(CCC(=O)Nc2nc(-c3ccccn3)nc3sccc23)cn1
- inhibition at 10 µM: 76 to 100%

SMILES: O=C(Cn1c(=O)oc2ccccc21)Nc1nnc(-c2ccccn2)[nH]1 [drawing 1010]
- inhibition at 30 µM: 1 to 25%

SMILES: Cc1ccc(-c2csc3c(O)nc(-c4ccccn4)nc23)cc1 [drawing 1320]
- inhibition at 10 µM: 1 to 25%

SMILES: COCCNc1nc(-c2cn(C)cn2)nc2sc(C)c(-c3ccccc3)c12 [drawing 1345]
- inhibition at 10 µM: 25 to 50%

SMILES: O=c1nc(-c2ccccn2)[nH]c2sc(-c3ccccc3)cc12 [drawing 1037]
- inhibition at 30 µM: 25 to 50%

SMILES: Cc1ccc(CC(=O)Nc2nnc(-c3ccccn3)[nH]2)s1 [drawing 1018]
- inhibition at 30 µM: 1 to 25%

SMILES: COc1cnc(CNC(=O)c2csc3nc(-c4ccccn4)nc(N)c23)[nH]c1=O [drawing 1277]
- inhibition at 10 µM: 25 to 50%

SMILES: O=C(Nc1nc(-c2ccccn2)cs1)C1CC(=O)N(c2ccc3c(c2)OCCO3)C1 (stereo not shown) [drawing 1031]
- inhibition at 30 µM: 25 to 50%

SMILES: COc1cccc(C2CN(C(=O)c3csc4c(O)nc(-c5ccccn5)nc34)CCN2)c1 (stereo not shown) [drawing 1150]
- inhibition at 30 µM: 1 to 25%

SMILES: COc1cc(CCN(C)C(=O)c2csc3nc(-c4ccccn4)nc(N4CCOCC4)c23)ccn1 [drawing 1155]
- inhibition at 30 µM: 1 to 25%

SMILES: Nc1nc(-c2ccccn2)nc2ccsc12 [drawing 1187]
- inhibition at 10 µM: 1 to 25%

SMILES: CC(C)COc1ccc(-c2csc3c(O)nc(-c4cn(C)cn4)nc23)cn1 [drawing 1365]
- inhibition at 10 µM: 1 to 25%

SMILES: COc1nc(-c2cn(C)cn2)nc2sc(-c3ccncc3)c(-c3ccccc3)c12 [drawing 1291]
- inhibition at 10 µM: 1 to 25%

SMILES: CC(C)COc1ccc(-c2csc3c(O)nc(-c4nccn4C)nc23)cn1 [drawing 1372]
- inhibition at 10 µM: 25 to 50%

SMILES: Oc1nc(-c2ccccn2)nc2c(Br)csc12 [drawing 1064]
- IC50: 2 to 10 µM
- inhibition at 30 µM: 76 to 100%

SMILES: Nc1nc(-c2ccccn2)nc2scc(Br)c12 [drawing 1231]
- inhibition at 10 µM: 1 to 25%

SMILES: COCCNc1nc(-c2nccn2C)nc2sc(-c3ccc(OC)cc3)c(-c3ccccc3)c12 [drawing 1357]
- inhibition at 10 µM: 51 to 75%

SMILES: Clc1csc2nc(-c3ccccn3)nc(N3CCOCC3)c12 [drawing 1113]
- inhibition at 30 µM: 1 to 25%

SMILES: Cc1sc2c(O)nc(-c3nccn3C)nc2c1-c1ccccc1Cl [drawing 1362]
- inhibition at 10 µM: 1 to 25%

SMILES: O=C(Nc1nnc(-c2ccccn2)[nH]1)C1CCn2c(cnc2-c2ccccc2)C1 (stereo not shown) [drawing 997]
- inhibition at 30 µM: 1 to 25%
